According to patent publication US7199112B2, “Use of phospholipid arachidonic acids for increasing muscle mass in humans” (priority 2005, dated 2007):

Experiments:
[1] = test system: adrenocorticotropin (ACTH) and cortisol response; settings: intravenous infusion; cited from earlier work
[2] = test system: lean skeletal muscle mass; settings: peroral, humans, clinical study by the inventor
[3] = test system: intestinal transport of certain nutrients; settings: cited from earlier work
IGF-1 response = settings: certain cell studies; cited from earlier work

Row | Substance | increasing lean skeletal muscle mass [2] | other results
1 | Phosphatidylserine | – | adrenocorticotropin (ACTH) and cortisol response to stressful exercise [1]: significantly suppresses
2 | lysophosphatidylcholine arachidonic acid | effective | –
3 | phosphatidylcholine arachidonic acid | effective | –
4 | Lysophosphatidylcholine | – | intestinal transport of certain nutrients [3]: increases
5 | phosphatidylserine arachidonic acid | effective | –
6 | Phosphatidylcholine | – | IGF-1 response (IGF-1 response): exert an IGF-1 response
